Test results from ChEMBL document CHEMBL3046669, “Insecticide resistance of the oriental fruit fly, Bactrocera dorsalis (Hendel) (Diptera: Tephritidae), in mainland China” (2011).
Converted amounts (≈) assume the structure as drawn.

Key:
Assay type in all cases: functional
Bactrocera dorsalis [1] = experiment: Insecticidal activity against adult Bactrocera dorsalis T-R-48 assessed as mortality
Bactrocera dorsalis [2] = experiment: Resistance ratio of LC50 for adult Bactrocera dorsalis GZ08 to LC50 for adult Bactrocera dorsalis after 24 hr
Bactrocera dorsalis [3] = experiment: Insecticidal activity against adult Bactrocera dorsalis CS08 assessed as mortality after 24 hr; settings: CS08, 24 h
Bactrocera dorsalis [4] = experiment: Resistance ratio of LC50 for adult Bactrocera dorsalis QY08 to LC50 for adult Bactrocera dorsalis after 24 hr
Bactrocera dorsalis [5] = experiment: Insecticidal activity against adult Bactrocera dorsalis ZJ07 assessed as mortality after 24 hr; settings: ZJ07, 24 h
Bactrocera dorsalis [6] = experiment: Insecticidal activity against adult Bactrocera dorsalis assessed as mortality after 24 hr
Bactrocera dorsalis [7] = experiment: Insecticidal activity against adult Bactrocera dorsalis NN07 assessed as mortality after 24 hr; settings: NN07, 24 h
Bactrocera dorsalis [8] = experiment: Resistance ratio of LC50 for adult Bactrocera dorsalis ZJ07 to LC50 for adult Bactrocera dorsalis after 24 hr
Bactrocera dorsalis [9] = experiment: Resistance ratio of LC50 for adult Bactrocera dorsalis CS08 to LC50 for adult Bactrocera dorsalis after 24 hr
Bactrocera dorsalis [10] = experiment: Insecticidal activity against adult Bactrocera dorsalis HZ08 assessed as mortality after 24 hr; settings: HZ08, 24 h
Bactrocera dorsalis [11] = experiment: Insecticidal activity against adult Bactrocera dorsalis CH08 assessed as mortality after 24 hr; settings: CH08, 24 h
Bactrocera dorsalis [12] = experiment: Resistance ratio of LC50 for adult Bactrocera dorsalis CH08 to LC50 for adult Bactrocera dorsalis after 24 hr
Bactrocera dorsalis [13] = experiment: Insecticidal activity against adult Bactrocera dorsalis HK07 assessed as mortality after 24 hr; settings: HK07, 24 h
Bactrocera dorsalis [14] = experiment: Resistance ratio of LC50 for adult Bactrocera dorsalis NN07 to LC50 for adult Bactrocera dorsalis after 24 hr
Bactrocera dorsalis [15] = experiment: Resistance ratio of LC50 for adult Bactrocera dorsalis GZ07 to LC50 for adult Bactrocera dorsalis after 24 hr
Bactrocera dorsalis [16] = experiment: Insecticidal activity against adult Bactrocera dorsalis QY08 assessed as mortality after 24 hr; settings: QY08, 24 h
Bactrocera dorsalis [17] = experiment: Insecticidal activity against adult Bactrocera dorsalis HY08 assessed as mortality after 24 hr; settings: HY08, 24 h
Bactrocera dorsalis [18] = experiment: Resistance ratio of LC50 for adult Bactrocera dorsalis FZ08 to LC50 for adult Bactrocera dorsalis after 24 hr
Bactrocera dorsalis [19] = experiment: Insecticidal activity against adult Bactrocera dorsalis WX08 assessed as mortality after 24 hr; settings: WX08, 24 h
Bactrocera dorsalis [20] = experiment: Resistance ratio of LC50 for adult Bactrocera dorsalis FZ07 to LC50 for adult Bactrocera dorsalis after 24 hr
Bactrocera dorsalis [21] = experiment: Insecticidal activity against adult Bactrocera dorsalis GZ07 assessed as mortality after 24 hr; settings: GZ07, 24 h
Bactrocera dorsalis [22] = experiment: Resistance ratio of LC50 for adult Bactrocera dorsalis HZ07 to LC50 for adult Bactrocera dorsalis after 24 hr
Bactrocera dorsalis [23] = experiment: Insecticidal activity against adult Bactrocera dorsalis YJ08 assessed as mortality after 24 hr; settings: YJ08, 24 h
Bactrocera dorsalis [24] = experiment: Resistance ratio of LC50 for adult Bactrocera dorsalis YJ08 to LC50 for adult Bactrocera dorsalis after 24 hr
Bactrocera dorsalis [25] = experiment: Insecticidal activity against adult Bactrocera dorsalis HK08 assessed as mortality after 24 hr; settings: HK08, 24 h
Bactrocera dorsalis [26] = experiment: Insecticidal activity against adult Bactrocera dorsalis WX07 assessed as mortality after 24 hr; settings: WX07, 24 h
Bactrocera dorsalis [27] = experiment: Insecticidal activity against adult Bactrocera dorsalis FZ07 assessed as mortality after 24 hr; settings: FZ07, 24 h
Bactrocera dorsalis [28] = experiment: Resistance ratio of LC50 for adult Bactrocera dorsalis WX08 to LC50 for adult Bactrocera dorsalis after 24 hr
Bactrocera dorsalis [29] = experiment: Insecticidal activity against adult Bactrocera dorsalis CH07 assessed as mortality after 24 hr; settings: CH07, 24 h
Bactrocera dorsalis [30] = experiment: Resistance ratio of LC50 for adult Bactrocera dorsalis HK07 to LC50 for adult Bactrocera dorsalis after 24 hr
Bactrocera dorsalis [31] = experiment: Resistance ratio of LC50 for adult Bactrocera dorsalis HK08 to LC50 for adult Bactrocera dorsalis after 24 hr
Bactrocera dorsalis [32] = experiment: Resistance ratio of LC50 for adult Bactrocera dorsalis MM07 to LC50 for adult Bactrocera dorsalis after 24 hr
Bactrocera dorsalis [33] = experiment: Resistance ratio of LC50 for adult Bactrocera dorsalis T-R-48 to LC50 for adult Bactrocera dorsalis
Bactrocera dorsalis [34] = experiment: Insecticidal activity against adult Bactrocera dorsalis T-R-45 assessed as mortality
Bactrocera dorsalis [35] = experiment: Resistance ratio of LC50 for adult Bactrocera dorsalis HZ08 to LC50 for adult Bactrocera dorsalis after 24 hr
Bactrocera dorsalis [36] = experiment: Insecticidal activity against adult Bactrocera dorsalis GZ08 assessed as mortality after 24 hr; settings: GZ08, 24 h
Bactrocera dorsalis [37] = experiment: Insecticidal activity against adult Bactrocera dorsalis CS07 assessed as mortality after 24 hr; settings: CS07, 24 h
Bactrocera dorsalis [38] = experiment: Insecticidal activity against adult Bactrocera dorsalis MM08 assessed as mortality after 24 hr; settings: MM08, 24 h
Bactrocera dorsalis [39] = experiment: Resistance ratio of LC50 for adult Bactrocera dorsalis WX07 to LC50 for adult Bactrocera dorsalis after 24 hr
Bactrocera dorsalis [40] = experiment: Insecticidal activity against adult Bactrocera dorsalis HZ07 assessed as mortality after 24 hr; settings: HZ07, 24 h
Bactrocera dorsalis [41] = experiment: Resistance ratio of LC50 for adult Bactrocera dorsalis YJ07 to LC50 for adult Bactrocera dorsalis after 24 hr
Bactrocera dorsalis [42] = experiment: Resistance ratio of LC50 for adult Bactrocera dorsalis MM08 to LC50 for adult Bactrocera dorsalis after 24 hr
Bactrocera dorsalis [43] = experiment: Resistance ratio of LC50 for adult Bactrocera dorsalis HY08 to LC50 for adult Bactrocera dorsalis after 24 hr
Bactrocera dorsalis [44] = experiment: Resistance ratio of LC50 for adult Bactrocera dorsalis QY07 to LC50 for adult Bactrocera dorsalis after 24 hr
Bactrocera dorsalis [45] = experiment: Resistance ratio of LC50 for adult Bactrocera dorsalis HY07 to LC50 for adult Bactrocera dorsalis after 24 hr
Bactrocera dorsalis [46] = experiment: Resistance ratio of LC50 for adult Bactrocera dorsalis CH07 to LC50 for adult Bactrocera dorsalis after 24 hr
Bactrocera dorsalis [47] = experiment: Insecticidal activity against adult Bactrocera dorsalis YJ07 assessed as mortality after 24 hr; settings: YJ07, 24 h
Bactrocera dorsalis [48] = experiment: Insecticidal activity against adult Bactrocera dorsalis QY07 assessed as mortality after 24 hr; settings: QY07, 24 h
Bactrocera dorsalis [49] = experiment: Resistance ratio of LC50 for adult Bactrocera dorsalis T-R-45 to LC50 for adult Bactrocera dorsalis
Bactrocera dorsalis [50] = experiment: Resistance ratio of LC50 for adult Bactrocera dorsalis CS07 to LC50 for adult Bactrocera dorsalis after 24 hr
Bactrocera dorsalis [51] = experiment: Insecticidal activity against adult Bactrocera dorsalis FZ08 assessed as mortality after 24 hr; settings: FZ08, 24 h
Bactrocera dorsalis [52] = experiment: Insecticidal activity against adult Bactrocera dorsalis NN08 assessed as mortality after 24 hr; settings: NN08, 24 h
Bactrocera dorsalis [53] = experiment: Resistance ratio of LC50 for adult Bactrocera dorsalis NN08 to LC50 for adult Bactrocera dorsalis after 24 hr
Bactrocera dorsalis [54] = experiment: Insecticidal activity against adult Bactrocera dorsalis HY07 assessed as mortality after 24 hr; settings: HY07, 24 h
Bactrocera dorsalis [55] = experiment: Insecticidal activity against adult Bactrocera dorsalis MM07 assessed as mortality after 24 hr; settings: MM07, 24 h

## COP(=O)(OC)C(O)C(Cl)(Cl)Cl (stereo not drawn) [TRICHLORFON]
Bactrocera dorsalis [1]
  LC90: 635.27 mg/L (≈ 2470 µM)
Bactrocera dorsalis [1]; Bactrocera dorsalis, T-R-48
  LC50: 115 µg/mL (≈ 448 µM)
Bactrocera dorsalis [2]
  RatioLC50: 8.87
Bactrocera dorsalis [3]
  LC50: 28.2 µg/mL (≈ 110 µM)
Bactrocera dorsalis [4]
  RatioLC50: 7.34
Bactrocera dorsalis [5]
  LC50: 29.7 µg/mL (≈ 115 µM)
Bactrocera dorsalis [6]
  LC90: 2.64 mg/L (≈ 10.3 µM)
Bactrocera dorsalis [6]; Bactrocera dorsalis, 24 h
  LC50: 1.61 µg/mL (≈ 6.25 µM)
Bactrocera dorsalis [7]
  LC50: 25.1 µg/mL (≈ 97.4 µM)
Bactrocera dorsalis [8]
  RatioLC50: 18.51
Bactrocera dorsalis [9]
  RatioLC50: 17.56
Bactrocera dorsalis [10]
  LC50: 2.43 µg/mL (≈ 9.44 µM)
Bactrocera dorsalis [11]
  LC50: 28.7 µg/mL (≈ 112 µM)
Bactrocera dorsalis [12]
  RatioLC50: 17.91
Bactrocera dorsalis [13]
  LC50: 14.1 µg/mL (≈ 54.7 µM)
Bactrocera dorsalis [14]
  RatioLC50: 15.62
Bactrocera dorsalis [15]
  RatioLC50: 19.8
Bactrocera dorsalis [16]
  LC50: 11.8 µg/mL (≈ 45.8 µM)
Bactrocera dorsalis [17]
  LC50: 34 µg/mL (≈ 132 µM)
Bactrocera dorsalis [18]
  RatioLC50: 20.2
Bactrocera dorsalis [19]
  LC50: 22.7 µg/mL (≈ 88.1 µM)
Bactrocera dorsalis [20]
  RatioLC50: 12.32
Bactrocera dorsalis [21]
  LC50: 31.8 µg/mL (≈ 123 µM)
Bactrocera dorsalis [22]
  RatioLC50: 16.72
Bactrocera dorsalis [23]
  LC50: 8.38 µg/mL (≈ 32.6 µM)
Bactrocera dorsalis [24]
  RatioLC50: 5.22
Bactrocera dorsalis [25]
  LC50: 2.21 µg/mL (≈ 8.58 µM)
Bactrocera dorsalis [26]
  LC50: 31.2 µg/mL (≈ 121 µM)
Bactrocera dorsalis [27]
  LC50: 19.8 µg/mL (≈ 76.8 µM)
Bactrocera dorsalis [28]
  RatioLC50: 14.13
Bactrocera dorsalis [29]
  LC50: 20.4 µg/mL (≈ 79.3 µM)
Bactrocera dorsalis [30]
  RatioLC50: 8.77
Bactrocera dorsalis [31]
  RatioLC50: 1.37
Bactrocera dorsalis [32]
  RatioLC50: 17.78
Bactrocera dorsalis [33]
  RatioLC50: 71.58
Bactrocera dorsalis [34]
  LC90: 322.86 mg/L (≈ 1250 µM)
Bactrocera dorsalis [34]; Bactrocera dorsalis, T-R-45
  LC50: 93.9 µg/mL (≈ 365 µM)
Bactrocera dorsalis [35]
  RatioLC50: 1.51
Bactrocera dorsalis [36]
  LC50: 14.2 µg/mL (≈ 55.3 µM)
Bactrocera dorsalis [37]
  LC50: 27.2 µg/mL (≈ 106 µM)
Bactrocera dorsalis [38]
  LC50: 113 µg/mL (≈ 439 µM)
Bactrocera dorsalis [39]
  RatioLC50: 19.46
Bactrocera dorsalis [40]
  LC50: 26.8 µg/mL (≈ 104 µM)
Bactrocera dorsalis [41]
  RatioLC50: 5.25
Bactrocera dorsalis [42]
  RatioLC50: 70.45
Bactrocera dorsalis [43]
  RatioLC50: 21.19
Bactrocera dorsalis [44]
  RatioLC50: 11.53
Bactrocera dorsalis [45]
  RatioLC50: 25.79
Bactrocera dorsalis [46]
  RatioLC50: 12.71
Bactrocera dorsalis [47]
  LC50: 8.43 µg/mL (≈ 32.7 µM)
Bactrocera dorsalis [48]
  LC50: 18.5 µg/mL (≈ 71.9 µM)
Bactrocera dorsalis [49]
  RatioLC50: 58.34
Bactrocera dorsalis [50]
  RatioLC50: 16.96
Bactrocera dorsalis [51]
  LC50: 32.4 µg/mL (≈ 126 µM)
Bactrocera dorsalis [52]
  LC50: 11.9 µg/mL (≈ 46.1 µM)
Bactrocera dorsalis [53]
  RatioLC50: 7.39
Bactrocera dorsalis [54]
  LC50: 41.4 µg/mL (≈ 161 µM)
Bactrocera dorsalis [55]
  LC50: 28.5 µg/mL (≈ 111 µM)
